The results in this text go back to US20120015399A1, “FLUORESCENT SOLVATOCHROMIC PIGMENT” (National University Corporation Hokkaido University, priority 2009, published 2012).

Data set [1] is described as follows: Fluorescence spectra of thiophene derivatives in solvents of different polarity. In kind it is physicochemical. As to the method: (§1) In the present Example, the thiophene derivatives (Compounds 3 to 6) obtained in Synthesis Examples 1 and 2 were dissolved in a variety of solvents with different polarity, and the absorption and the fluorescent spectra were measured.
Next, fluorescence spectra of the thiophene derivatives were measured. The fluorescence spectra were measured using the same samples used for the absorption spectra and using a fluorescence spectrophotometer (F-4500 manufactured by Hitachi Ltd.)
The numbers in the table indicate compound numbers.

Data set [2] can be described thus: Absorption spectra of thiophene derivatives in solvents of different polarity. In kind it is physicochemical. As to conditions: for Molar absorption coefficient: at maximum absorption wavelength. As to the method:
as §1
Now, the solvent polarity ET(30) (kcal/mole) was obtained by dissolving the betaine dye of the following formula that is a light absorbing solvatochromic dye in each solvent and incorporating the maximum absorption wavelength, λ (nm), into the equation ET(30)=28591/λ.
The thiophene derivative solutions were prepared by using a standard solvent for spectral measurement (Wako Pure Chemical Industries, Ltd.) in concentrations of from […] to 1.2×10^−5M, and absorptions were measured with a visible/ultraviolet spectrophotometer (V-560 UV/VIS Spectrophotometer manufactured by JASCO Corporation). The maximum absorption wavelength (nm) is shown in Table 2, and the molar absorption coefficient (mol^−1cm^−1) at the maximum absorption wavelength is shown in Table 3. The numbers in the tables indicate compound numbers.

Data set [3] can be described thus: Fluorescence colour in aqueous synthetic detergent solutions of different pH. In kind it is physicochemical. As to conditions: blue light 450 nm. As to the method: In the present Example, Compound 6 was dissolved in aqueous synthetic detergent solutions having different pH values and the fluorescence was measured.
Compound 6 (0.1 g each) obtained in Synthesis Example 2 was placed in three test tubes, and 10 ml each of deionized water and one drop of weakly acidic “Biore” (liquid detergent of Kao Corporation), “COOP K Soft” (liquid detergent of Cope Green K.K.) or “My Pet” (liquid detergent of Kao Corporation) were added. Aqueous solutions of Compound 6 were obtained by dissolving the compound using ultrasonic irradiation. The solutions were irradiated with blue light (450 nm) using a full color LED flash light (MFL 143-FB manufactured by Anteya Technology Corporation). The fluorescent color observed was orange in a weakly acidic environment (pH=5), red in a neutral environment […] and crimson in a weakly alkaline environment (pH=8).

Data set [4] deals with human colon cancer cell T84. Put plainly: Staining of cultured cells, confocal laser fluorescence microscopy. The class given is cell-based. Here is the method:
In the present Example, Compound 7 was introduced into cultured human colon cancer cell T84 and its image was observed using a fluorescence microscope.
Human colon cancer cell T84 culture (cell stock-microbial stock-gene bank (ATCC) number CCL-248, supplied by Summit Pharmaceuticals International Corporation) in a sub-confluent state that had been cultured (37° C., 5% CO2) for two to four days in a glass bottom dish (35 mm, Matsunami Glass Ind., Ltd.) was washed with phosphoric acid buffered physiological saline solution. One hundred microliters of a DMSO solution of 2×10^−5 M of Compound 7 was added dropwise near the cells, and a reaction was allowed to occur for five minutes at room temperature. The cells were washed again using phosphoric acid buffered physiological saline solution and were immediately exposed to an argon laser (488 nm) to reach an excited state in the phosphoric acid buffered physiological saline solution. The response was observed using a confocal laser microscope (LSM510META manufactured by Carl Zeiss).
In the present Comparative Example, the compound shown below described in Reference 3 (Japanese Patent Application Public Disclosure No. 2008-291210) was used in place of Compound 7, and the fluorescence microscope images of the cultured human colon cancer cell T84 were examined in the manner described in Example 5.

Data set [5] has as its system macrophage cells (RAW264). Kind of data set: Staining of macrophage cells, confocal laser fluorescence microscopy. The class given is cell-based. Conditions: stain solution in calf serum/D-MEM 1:9, fifteen minutes, 37° C., argon laser 488 nm, FIG. 9. Here is the method: In the present Example, macrophage cells were stained using the pyridinium derivatives shown in Table 1 and the differences in cell staining were compared in order to investigate the effects of the alkyl chain lengths in R^7 and R^8.
Several micrograms of each pyridinium derivative (Compounds 10 and 21 to 23) were added to 10 milliliters of a liquid medium obtained by mixing calf serum and D-MEM base medium in a 1:9 ratio. The mixtures were left standing in a refrigerator overnight to dissolve the solids. 5 milliliters of the supernatant solutions were removed the next day and were used as cell staining solutions after filtering the solutions through sterilizing membrane filters with a pore diameter of […] p.m.
The macrophage cells (RAW264 of ATCC Co., Ltd.) were floated in HydroCell dishes manufactured by Cell Seed Co., Ltd. using a liquid culture obtained by mixing calf serum and D-MEM base medium in a 1:9 ratio.
The media were removed from the glass bottom dishes on which the RAW264 cells were supported, and 0.2 ml of each stain solution was added. The cells were stained by leaving the dish standing for fifteen minutes in a CO2 incubator at 37° C. The stain solutions were subsequently removed, and the media were exchanged three times using a liquid medium obtained by mixing calf serum and D-MEM base medium in 1:9 ratio. […] The results are shown in terms of fluorescence microscopic images (FIG. 9).

Where [6] appears, read: 1,4-Dioxane, solvent polarity ET(30) 36.0.
The mark [7] stands for this setting: Acetone, solvent polarity ET(30) 42.2.
The mark [8] stands for this setting: DMSO, solvent polarity ET(30) 45.1.
The mark [9] stands for this setting: Comparative Example 1, blue diode laser 405 nm, FIG. 11.

For `CCCCCCN(CCCCCC)c1ccc(-c2ccc(-c3ccncc3)s2)cc1` [Compound 3, N,N-dihexyl-4-[5-(pyridine-4-yl)thiophene-2-yl]aniline], the “Maximum fluorescence emission wavelength” value in data set [1] (1,4-Dioxane, ET(30) 36.0) was 467 nm; in data set [1] (Acetone, ET(30) 42.2), 507 nm; in data set [1] (DMSO, ET(30) 45.1), 522 nm. Moreover, the Maximum absorption wavelength in data set [2] (setting [6]) is 389 nm; in data set [2] (setting [7]) it was 391 nm; in data set [2] (setting [8]) it was 401 nm. For the same compound, the Molar absorption coefficient was 31,000 mol^−1cm^−1 in data set [2] (1,4-Dioxane, ET(30) 36.0); 33,000 mol^−1cm^−1 in data set [2] (Acetone, ET(30) 42.2); 32,000 mol^−1cm^−1 in data set [2] (DMSO, ET(30) 45.1).

Turning to `CCCCCCN(CCCCCC)c1ccc(-c2ccc(-c3ccccn3)s2)cc1` [Compound 4, N,N-dihexyl-4-[5-(pyridine-2-yl)thiophene-2-yl]aniline], the “Maximum fluorescence emission wavelength” value in data set [1] (1,4-Dioxane, ET(30) 36.0) worked out at 459 nm; in data set [1] (Acetone, ET(30) 42.2), 488 nm; in data set [1] (DMSO, ET(30) 45.1), 507 nm. In addition, the Maximum absorption wavelength in data set [2] (setting [6]) turned out to be 387 nm; in data set [2] (setting [7]), 385 nm; in data set [2] (setting [8]), 395 nm. Also, the Molar absorption coefficient is 33,000 mol^−1cm^−1 in data set [2] (1,4-Dioxane, ET(30) 36.0); 33,000 mol^−1cm^−1 in data set [2] (Acetone, ET(30) 42.2); 31,000 mol^−1cm^−1 in data set [2] (DMSO, ET(30) 45.1).

For the compound `CCCCCCN(CCCCCC)c1ccc(-c2ccc(-c3ncccn3)s2)cc1` [Compound 5, N,N-dihexyl-4-[5-(pyrimidine-2-yl)thiophene-2-yl]aniline], the “Maximum fluorescence emission wavelength” value was found to be 472 nm in data set [1] (1,4-Dioxane, ET(30) 36.0); 507 nm in data set [1] (Acetone, ET(30) 42.2); 522 nm in data set [1] (DMSO, ET(30) 45.1). Besides, the Maximum absorption wavelength in data set [2] (setting [6]) was determined as 395 nm; in data set [2] (setting [7]) it was 395 nm; in data set [2] (setting [8]), 406 nm. The Molar absorption coefficient in data set [2] (1,4-Dioxane, ET(30) 36.0) was 33,000 mol^−1cm^−1; in data set [2] (Acetone, ET(30) 42.2), 33,000 mol^−1cm^−1; in data set [2] (DMSO, ET(30) 45.1), 31,000 mol^−1cm^−1.

`CCCCCCN(CCCCCC)c1ccc(-c2ccc(-c3cc[n+](C)cc3)s2)cc1.[I-]` [Compound 6, 4-[5-(4-dihexylamino)phenyl]thiophene-2-yl-1-methylpyridinium iodide]: the “Maximum fluorescence emission wavelength” value stood at 568 nm in data set [1] (1,4-Dioxane, ET(30) 36.0); 639 nm in data set [1] (Acetone, ET(30) 42.2); 653 nm in data set [1] (DMSO, ET(30) 45.1). Further, the “Absorption and emission wavelengths, compared” value in data set [1] (versus Compounds 3 to 5) is “significantly longer absorption and emission wavelengths than Compounds 3 to 5”. Also, the Fluorescent color observed entry in data set [3] (neutral environment (pH=6)) is on record as “red”; in data set [3] (weakly acidic environment (pH=5)) it was “orange”; in data set [3] (weakly alkaline environment (pH=8)), “crimson”. Also, the “Excitation by commonly encountered argon lasers (488 nm)” value in data set [2] is reported as “could be efficiently excited”. For the same compound, the values for the Maximum absorption wavelength in data set [2] (setting [6]), in data set [2] (setting [7]) and in data set [2] (setting [8]) were 490 nm, 501 nm and 497 nm, respectively. Also, the Molar absorption coefficient in data set [2] (1,4-Dioxane, ET(30) 36.0) is given as 26,000 mol^−1cm^−1; in data set [2] (Acetone, ET(30) 42.2), 36,000 mol^−1cm^−1; in data set [2] (DMSO, ET(30) 45.1) it was 36,000 mol^−1cm^−1.

For `CCCCCCN(CCCCCC)c1ccc(-c2ccc(-c3cc[n+](C)cc3)s2)cc1.F[B-](F)(F)F` [Compound 7, 4-[5-(4-dihexylamino)phenyl]thiophene-2-yl-1-methylpyridinium tetrafluoroborate], in data set [4] (2×10^−5 M in DMSO, five minutes, room temperature, argon laser 488 nm, FIG. 7), the Cell staining entry is “cell membranes of colon cancer cells T84 are stained”. For the same compound, the Laser caused fading entry in data set [4] (confocal laser microscope, conditions of the experiment) is given as “did not undergo laser caused fading”.

As for `CCN(CC)c1ccc(-c2ccc(-c3cc[n+](C)cc3)s2)cc1.O=S(=O)([O-])C(F)(F)F` [Compound 21], the Cell staining pattern result in data set [5] is on record as “Entire cells were stained with fluorescence”.

On to `CCCCN(CCCC)c1ccc(-c2ccc(-c3cc[n+](C)cc3)s2)cc1.O=S(=O)([O-])C(F)(F)F` [Compound 22, 4-[5-(4-dibutylamino)phenyl]thiophene-2-O-1-methylpyridinium trifluoromethane sulfonate], for which the Cell staining pattern result in data set [5] was “the cell membrane and mitochondria were selectively stained”.

Regarding `CCCCCCCCN(CCCCCCCC)c1ccc(-c2ccc(-c3cc[n+](C)cc3)s2)cc1.O=S(=O)([O-])C(F)(F)F` [Compound 23], the Cell staining pattern entry in data set [5] was “the entire cell was stained with fluorescence but the fluorescence intensity was low and the stain was not even”.

With `CN(C)c1ccc(-c2ccc(-c3ccc(S(=O)(=O)OCC(C)(C)C)cc3)s2)cc1` [reference compound], in data set [4] (setting [9]), the Cell staining result was “the cell membrane was selectively labeled with fluorescence” and the “Change of fluorescence wavelength between cell sections” value is reported as “remained almost unchanged”.
